{
  "source": "patent US5001118A",
  "about": "“Method for preventing senescence and increasing bone mass” (priority 1986, dated 1991)",
  "key": {"osteoporosis": {"tested_on": "osteoporosis", "assay": "Activity on bones found by the inventors (general statement)"}, "rats": {"tested_on": "rats", "assay": "Lifelong administration to rats (general statement on bone)", "assay_type": "in vivo, rat", "text": "One aspect of the present invention has been perfected based on the above findings. […] These findings are literally epochal in the light of the fact that the conventional pharmaceutical compositions for adjusting bone metabolism is found to be only capable of restoring bones having abnormality due to morbidity near to normality."}, "[1]": {"conditions": "lifelong administration to rats"}},
  "data": [
    {"smiles": "C=C1CC[C@H](O)C/C1=C/C=C1\\CCC[C@]2(C)[C@@H]([C@H](C)CCC(O)C(C)(C)O)CC[C@@H]12", "note": "(stereo partly shown) [24,25-(OH)2 -D3, 24,25-dihydroxy cholecalciferol]", "values": [
      {"measurement": "activity on osteoporosis", "setting": "osteoporosis", "result": "activity of preventing osteoporosis"},
      {"measurement": "bone quality", "setting": "rats; [1]", "result": "without affecting the bone quality"},
      {"measurement": "bone volume", "setting": "rats; [1]", "result": "increasing bone volume"},
      {"measurement": "bone strength vs non-administered normal mammals", "setting": "rats; normal mammal, extension of the lifelong rat experiment", "result": "clearly surpassing the average bone strength of non-administered normal mammals"}
    ]}
  ]
}
